Patent publication EP1389624A1, “Phosphorous-containing cysteine and serine protease inhibitors” (CEPHALON, INC., priority 1995, dated 1997)

Molecular target: T1, Calpain I (Homo sapiens, UniProt P07384)
T1 sequence (P07384 1-714): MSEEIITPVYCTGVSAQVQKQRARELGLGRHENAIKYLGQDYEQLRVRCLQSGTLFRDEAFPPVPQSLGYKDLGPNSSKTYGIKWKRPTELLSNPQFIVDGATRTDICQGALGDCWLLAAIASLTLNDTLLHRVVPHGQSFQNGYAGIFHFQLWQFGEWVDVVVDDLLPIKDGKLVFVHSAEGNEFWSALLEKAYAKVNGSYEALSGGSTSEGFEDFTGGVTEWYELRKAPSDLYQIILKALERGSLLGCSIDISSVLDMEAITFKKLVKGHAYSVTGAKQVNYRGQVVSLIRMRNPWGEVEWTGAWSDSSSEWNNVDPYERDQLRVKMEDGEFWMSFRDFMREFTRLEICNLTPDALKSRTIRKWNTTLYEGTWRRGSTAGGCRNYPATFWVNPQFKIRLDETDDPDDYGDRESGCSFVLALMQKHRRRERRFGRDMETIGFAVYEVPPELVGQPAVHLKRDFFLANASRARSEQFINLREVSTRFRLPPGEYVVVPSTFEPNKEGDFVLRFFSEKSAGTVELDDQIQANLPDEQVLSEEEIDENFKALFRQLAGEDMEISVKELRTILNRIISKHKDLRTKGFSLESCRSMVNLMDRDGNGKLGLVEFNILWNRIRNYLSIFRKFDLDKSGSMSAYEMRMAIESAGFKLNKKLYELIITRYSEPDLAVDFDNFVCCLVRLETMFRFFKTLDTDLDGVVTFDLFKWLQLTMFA
T1 sequence (P04632 1-268 partner): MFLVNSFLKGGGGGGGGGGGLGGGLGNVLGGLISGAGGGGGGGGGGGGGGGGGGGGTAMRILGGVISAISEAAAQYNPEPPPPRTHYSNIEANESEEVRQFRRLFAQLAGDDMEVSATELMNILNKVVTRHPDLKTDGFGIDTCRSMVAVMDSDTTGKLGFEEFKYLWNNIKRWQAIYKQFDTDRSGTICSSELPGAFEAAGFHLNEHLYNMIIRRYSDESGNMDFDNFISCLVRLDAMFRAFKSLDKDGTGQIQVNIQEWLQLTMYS
Test: Inhibition and rate of inactivation of cysteine protease (calpain I) activity, Succ-Leu-Tyr-MNA substrate hydrolysis
Details: not given

In the case of `CC(C)CC(NC(=O)C12OC3COC(C)(C)OC3C1OC(C)(C)O2)C(=O)NC(Cc1ccccc1)C(=O)COP(=O)(OCc1ccccc1)OCc1ccccc1` [Example 37, Dibenzyl (3S)-[3-[(N-diisopropylidine-2-keto-L-gulonyl-L-leucyl)amino)-2-oxo-4-phenylbutyl] phosphate], the “kobs/I x 10^-3 M^-1s^-1” value is reported as 113 x 10^-3 M^-1s^-1.

Same assay, conditions: apparent second order rate constant of inactivation from reaction progress curves under pseudo-first order conditions; mean of three or more determinations

With “(3S)-[3-[(N-Benzyloxycarbonyl-L-leucyl)amino]-2-oxo-4-phenylbutyl] [3-(morpholin-4-yl)propyl](phenyl)phosphinate [Example 61]” the “kobs/I x 10^-3 M^-1s^-1” value was 17 x 10^-3 M^-1s^-1.
With `CC(C)C[C@H](NC(=O)C12OC(CO)C(O)C1OC(C)(C)O2)C(=O)N[C@@H](Cc1ccccc1)C(=O)COP(=O)(OCc1ccccc1)OCc1ccccc1` (stereo partly drawn) [Example 38, Dibenzyl (3S)-[3-[(N-monoisopropylidine-2-keto-L-gulonyl-L-leucyl)amino]-2-oxo-4-phenylbutyl] phosphate] the “kobs/I x 10^-3 M^-1s^-1” value was 116 x 10^-3 M^-1s^-1.
For `CCOP(=O)(CC(=O)[C@H](Cc1ccccc1)NC(=O)[C@H](CC(C)C)NC(=O)OCc1ccccc1)c1ccccc1` (stereo partly drawn) [Example 64, Ethyl (3S)-[3-[(N-benzyloxycarbonyl-L-leucyl)amino]-2-oxo-4-phenylbutyl] (phenyl)phosphinate], the “kobs/I x 10^-3 M^-1s^-1” value was 4 x 10^-3 M^-1s^-1.

Same assay, conditions: read-out: % Inhib. @ 0.1 uM

Point of comparison: `CC(C)C[C@H](NC(=O)OCc1ccccc1)C(=O)N[C@@H](CC(C)C)C(=O)P(=O)(c1ccc(Cl)cc1)c1ccc(Cl)cc1` [Example 67, [Benzyloxycarbonyl-L-leucyl-L-leucyl]bis(4-chlorophenyl)phosphine oxide], inhibition at 0.1 µM 4%. Against it:
- COP(=O)(O)C(=O)[C@H](CC(C)C)NC(=O)[C@H](CC(C)C)NC(=O)OCc1ccccc1 [Example 65, Methyl Hydrogen N-Benzyloxycarbonyl-L-leucyl-L-leucylphosphonate] — higher, 19%
- CC(C)C[C@H](NC(=O)OC(C)(C)C)C(=O)N[C@@H](Cc1ccccc1)C(=O)COP(=O)(O)O [Example 41, Dihydrogen (3S)-[3-[(N-t-Butoxycarbonyl-L-leucyl)amino]-2-oxo-4-phenylbutyl] phosphate] — higher, 7%
- CCCCCP(=O)(CCCCC)OCC(=O)[C@H](Cc1ccccc1)NC(=O)[C@H](CC(C)C)NC(=O)OCc1ccccc1 [Example 53, (3S)-[3-[(N-Benzyloxycarbonyl-L-leucyl)amino]-2-oxo-4-phenylbutyl] dipentylphosphinate] — higher, 19%
- COc1ccc(P(=O)(OCC(=O)[C@H](Cc2ccccc2)NC(=O)[C@H](CC(C)C)NC(=O)OCc2ccccc2)c2ccc(OC)cc2)cc1 [Example 57, (3S)-[3-[(N-Benzyloxycarbonyl-L-leucyl)amino]-2-oxo-4-phenylbutyl] bis(4-methoxyphenyl)phosphinate] — higher, 85%
- CCOP(=O)(C(=O)[C@H](CC(C)C)NC(=O)[C@H](CC(C)C)NC(=O)OCc1ccccc1)c1ccccc1 (stereo partly drawn) [Example 68, Ethyl N-benzyloxycarbonyl-L-leucyl-L-leucyl(phenyl)phosphinate] — lower, 0%
- CC(C)C[C@H](NC(=O)OCc1ccccc1)C(=O)N[C@@H](Cc1ccccc1)C(=O)COP(=O)(OCc1cccc(Oc2ccccc2)c1)OCc1cccc(Oc2ccccc2)c1 [Example 40, Bis(3-phenoxybenzyl) (3S)-[3-[(N-Benzyloxycarbonyl-L-leucyl)amino]-2-oxo-4-phenylbutyl] phosphate] — higher, 53%
- CC(C)C[C@H](NC(=O)OCc1ccccc1)C(=O)N[C@@H](Cc1ccccc1)C(=O)COP1(=O)OCC(OCc2ccccc2)CO1 (stereo partly drawn) [Example 47] — higher, 47%
- CC(C)C[C@H](NC(=O)OCc1ccccc1)C(=O)N[C@@H](Cc1ccccc1)C(=O)COP(=O)(OCc1ccccc1)c1ccccc1 (stereo partly drawn) [Example 49, Benzyl (3S)-[3-[(N-Benzyloxycarbonyl-L-leucyl)amino]-2-oxo-4-phenylbutyl]phenylphosphonate] — higher, 90%
- CCOP(=O)(CC(=O)[C@H](Cc1ccccc1)NC(=O)[C@H](CC(C)C)NC(=O)OCc1ccccc1)c1ccccc1 (stereo partly drawn) [Example 64, Ethyl (3S)-[3-[(N-benzyloxycarbonyl-L-leucyl)amino]-2-oxo-4-phenylbutyl] (phenyl)phosphinate] — higher, 26%
- CC(C)C[C@H](NC(=O)OC(C)(C)C)C(=O)N[C@@H](Cc1ccccc1)C(=O)COP(=O)(OCCC1CCCCC1)OCCC1CCCCC1 [Example 45, Bis(2-cyclohexylethyl) (3S)-[3-[(N-t-Butoxycarbonyl-L-leucyl)amino]-2-oxo-4-phenylbutyl] phosphate] — higher, 28%

Same assay, conditions: read-out: kobs/I x 10^-3 M^-1s^-1

Point of comparison: `Cc1ccccc1COP(=O)(OCC(=O)[C@H](Cc1ccccc1)NC(=O)[C@H](CC(C)C)NC(=O)OCc1ccccc1)OCc1ccccc1C` [Example 39, Bis(2-methylbenzyl) (3S)-[3-[(N-Benzyloxycarbonyl-L-leucyl)amino]-2-oxo-4-phenylbutyl] phosphate], kinact/KI 365000 M⁻¹ s⁻¹. Against it:
- COc1cccc(P(=O)(OCC(=O)[C@H](Cc2ccccc2)NC(=O)[C@H](CC(C)C)NC(=O)OCc2ccccc2)c2ccccc2)c1 (stereo partly drawn) [Example 59, (3S)-[3-[(N-Benzyloxycarbonyl-L-leucyl)amino]-2-oxo-4-phenylbutyl] (3-methoxylphenyl)(phenyl)phosphinate] — 2.2-fold lower, 163000 M⁻¹ s⁻¹
- CC(C)C[C@H](NC(=O)OCc1ccccc1)C(=O)N[C@@H](Cc1ccccc1)C(=O)COP(=O)(OCc1ccccc1)OCc1ccccc1 [Example 34, Dibenzyl (3S)-[3-[(N-Benzyloxycarbonyl-L-leucyl)amino]-2-oxo-4-phenylbutyl] phosphate] — 3.6-fold lower, 100000 M⁻¹ s⁻¹
- Cc1ccccc1P(=O)(OCC(=O)[C@H](Cc1ccccc1)NC(=O)[C@H](CC(C)C)NC(=O)OC(C)(C)C)c1ccccc1C [Example 56, (3S)-[3-[(N-t-Butoxycarbonyl-L-leucyl)amino]-2-oxo-4-phenylbutyl] bis(2-methylphenyl)phosphinate] — 17-fold lower, 22000 M⁻¹ s⁻¹
- CC(C)C[C@H](NC(=O)OC(C)(C)C)C(=O)N[C@@H](Cc1ccccc1)C(=O)COP(=O)(O)O [Example 41, Dihydrogen (3S)-[3-[(N-t-Butoxycarbonyl-L-leucyl)amino]-2-oxo-4-phenylbutyl] phosphate] — lower, < 20000 M⁻¹ s⁻¹
- CCCCC(CC)COP(=O)(OCC(=O)[C@H](Cc1ccccc1)NC(=O)[C@H](CC(C)C)NC(=O)OCc1ccccc1)OCC(CC)CCCC (stereo partly drawn) [Example 44, Bis(2-ethylhexyl) (3S)-[3-[(N-Benzyloxycarbonyl-L-leucyl)amino]-2-oxo-4-phenylbutyl] phosphate] — 360-fold lower, 1000 M⁻¹ s⁻¹
- COc1ccccc1P(=O)(OCC(=O)[C@H](Cc1ccccc1)NC(=O)[C@H](CC(C)C)NC(=O)OCc1ccccc1)c1ccccc1 (stereo partly drawn) [Example 58, (3S)-[3-[(N-Benzyloxycarbonyl-L-leucyl)amino]-2-oxo-4-phenylbutyl] (2-methoxyphenyl)(phenyl)phosphinate] — 2.4-fold lower, 150000 M⁻¹ s⁻¹
- COc1ccc(P(=O)(OCC(=O)[C@H](Cc2ccccc2)NC(=O)[C@H](CC(C)C)NC(=O)OCc2ccccc2)c2ccc(OC)cc2)cc1 [Example 57, (3S)-[3-[(N-Benzyloxycarbonyl-L-leucyl)amino]-2-oxo-4-phenylbutyl] bis(4-methoxyphenyl)phosphinate] — 4.3-fold lower, 85000 M⁻¹ s⁻¹
- COP(=O)(OC)OCC(=O)[C@H](Cc1ccccc1)NC(=O)[C@H](CC(C)C)NC(=O)OCc1ccccc1 [Example 42, Dimethyl (3S)-[3-[(N-Benzyloxycarbonyl-L-leucyl)amino]-2-oxo-4-phenylbutyl] phosphate] — 18-fold lower, 20000 M⁻¹ s⁻¹
- Cc1ccccc1P(=O)(OCC(=O)[C@H](Cc1ccccc1)NC(=O)[C@H](CC(C)C)NC(=O)OCc1ccccc1)c1ccccc1C [Example 55, (3S)-[3-[(N-Benzyloxycarbonyl-L-leucyl)amino]-2-oxo-4-phenylbutyl] bis(2-methylphenyl)phosphinate] — 12-fold lower, 31000 M⁻¹ s⁻¹
- CCCCOP(=O)(OCCCC)OCC(=O)[C@H](Cc1ccccc1)NC(=O)[C@H](CC(C)C)NC(=O)OCc1ccccc1 [Example 43, Dibutyl (3S)-[3-[(N-Benzyloxycarbonyl-L-leucyl)amino]-2-oxo-4-phenylbutyl] phosphate] — 9.1-fold lower, 40000 M⁻¹ s⁻¹
- CC(C)C[C@H](NC(=O)OCc1ccccc1)C(=O)N[C@@H](Cc1ccccc1)C(=O)COP(C)(C)=O [Example 52, (3S)-[3-[(N-Benzyloxycarbonyl-L-leucyl)amino]-2-oxo-4-phenylbutyl] dimethylphosphinate] — 61-fold lower, 6000 M⁻¹ s⁻¹
